Source: article PMC12415548 (RSC Advances, 2025)
Converted amounts (≈) assume the structure as drawn. Like-named read-outs stand apart in the source and are kept apart here.

Key:
[1] = test system: MRSA (Staphylococcus aureus ATCC 43300); experiment: Minimum bactericidal concentration; type: cell-based; settings: for Interpretation (of MBC/MIC): Table 4
[2] = test system: MCF-7 breast cancer cell line; experiment: MTT cytotoxicity assay, MCF-7; type: cell-based; settings: Homo sapiens, MCF7, read-out: IC50 (μg mL^−1) ± SD MCF7
normal HDF cells = experiment: Apoptosis/cytotoxicity in normal HDF cells
MDA-MB-231 cells = experiment: Apoptosis induction in MDA-MB-231 cells; type: cell-based, human; settings: MDA-MB-231 cells (Fig. 4)
MRSA biofilm = experiment: Antibiofilm activity, crystal violet assay; type: cell-based, Staphylococcus aureus
[3] = test system: MDA-MB-231 breast cancer cell line; experiment: MTT cytotoxicity assay, MDA-MB-231; type: cell-based; settings: Homo sapiens, MDA-MB-231, read-out: IC50 (μg mL^−1) ± SD MDA-MB231
MCF-7 cells = experiment: Apoptosis induction in MCF-7 cells; type: cell-based, human; settings: MCF-7 cells (Fig. 4)
AChE = AChE (Homo sapiens, UniProt P22303); experiment: Anticholinesterase inhibitory assay; type: biochemical
AChE, sequence (P22303 32-614): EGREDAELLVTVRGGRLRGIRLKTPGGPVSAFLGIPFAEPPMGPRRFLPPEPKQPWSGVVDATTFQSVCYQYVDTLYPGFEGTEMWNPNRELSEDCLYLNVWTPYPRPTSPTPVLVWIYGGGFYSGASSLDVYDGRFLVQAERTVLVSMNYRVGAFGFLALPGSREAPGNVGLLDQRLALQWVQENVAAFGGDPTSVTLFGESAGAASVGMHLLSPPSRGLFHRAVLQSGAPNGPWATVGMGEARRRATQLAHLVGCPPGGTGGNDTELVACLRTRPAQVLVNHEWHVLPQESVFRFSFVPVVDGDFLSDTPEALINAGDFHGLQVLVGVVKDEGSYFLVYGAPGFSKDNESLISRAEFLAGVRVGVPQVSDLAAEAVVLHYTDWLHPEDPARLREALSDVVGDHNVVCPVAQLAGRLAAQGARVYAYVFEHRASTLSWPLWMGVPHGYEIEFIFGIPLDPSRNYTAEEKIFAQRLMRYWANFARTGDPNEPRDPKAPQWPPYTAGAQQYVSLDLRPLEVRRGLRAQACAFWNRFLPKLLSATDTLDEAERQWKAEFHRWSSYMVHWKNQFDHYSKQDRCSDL

[4] = test system: MRSA (Staphylococcus aureus ATCC 43300); experiment: Anti-MRSA MIC, broth microdilution; type: cell-based; settings: for anti-MRSA potency compared to Linezolid: MIC comparison; for Interpretation (of MIC): MRSA, Table 3
MRSA = experiment: Time-kill assay against MRSA; type: cell-based, Staphylococcus aureus; settings: 0-24 h
[5] = test system: MCF-7 breast cancer cell line; settings: read-out: IC50 in MCF-7; known value quoted for comparison; no reference given; cited from earlier work

In the case of `CN1C(=O)/C(=N\Nc2ncc(-c3cc4ccccc4oc3=O)s2)c2cc(Cl)ccc21` [Compound 5, (Z)-5-chloro-1-methyl-3-(2-(5-(2-oxo-2H-chromen-3-yl)thiazol-2-yl)hydrazono)indolin-2-one], the MBC/MIC [1] is reported as 5.7, the “Interpretation (of MBC/MIC)” value [1] is reported as “Moderate bactericidal” and the IC50 [2] is reported as 10.8 ± 1.19 µg/mL (≈ 24.8 µM). The “apoptosis / cytotoxicity in normal cells” value (normal HDF cells) was “significantly lower cytotoxicity”, the apoptosis induction (MDA-MB-231 cells) was “moderate apoptosis” and the inhibition at 1.3 µg/mL (MRSA biofilm; Staphylococcus aureus, MRSA, read-out: inhibition of MRSA biofilm formation) was ~40%. The “eradication of preformed MRSA biofilms” value (MRSA biofilm; various concentrations (Fig. 8Z)) was “eradication efficiency increasing in a concentration-dependent manner”, the IC50 [3] was 14.4 ± 1.89 µg/mL (≈ 33.1 µM) and the apoptosis induction (MCF-7 cells) was “moderate apoptosis”. For the same compound, the IC50 (AChE) was 99.8 nM, the “anti-MRSA potency compared to Linezolid” value [4] was “superior potency” and the “Interpretation (of MIC)” value [4] was “Extremely potent”.
Compound `CCc1ccc(N2C(=O)/C(=C3/C(=O)N(C)c4ccc(Cl)cc43)NC2=S)cc1` [Compound 9, (Z)-5-chloro-3-(1-(4-ethylphenyl)-5-oxo-2-thioxoimidazolidin-4-ylidene)-1-methylindolin-2-one] has an IC50 [2] of 24 ± 1.49 µg/mL (≈ 60.3 µM), an IC50 [3] of 28.4 ± 2.19 µg/mL (≈ 71.4 µM) and an IC50 (AChE) of 302 nM. The “anti-MRSA potency compared to Linezolid” value [4] was “significantly less potent” and the “Interpretation (of MIC)” value [4] was “Weak activity”.
In the case of `CN1C(=S)N(c2ccccc2)C(=O)/C1=C1/C(=O)N(C)c2ccc(Cl)cc21` [Compound 12, (Z)-5-chloro-1-methyl-3-(3-methyl-5-oxo-1-phenyl-2-thioxoimidazolidin-4-ylidene)indolin-2-one], the IC50 [2] is reported as 16 ± 1.15 µg/mL (≈ 41.7 µM) and the IC50 [3] is reported as 27.3 ± 2.01 µg/mL (≈ 71.1 µM).
In the case of `COc1cccc2c1C(=O)c1c(O)c3c(c(O)c1C2=O)C[C@@](O)(C(=O)CO)C[C@@H]3O[C@H]1C[C@H](N)[C@H](O)[C@H](C)O1` [Doxorubicin, reference compound], the IC50 [2] is reported as 25.1 ± 1.67 µg/mL (≈ 46.3 µM) and the IC50 [3] is reported as 36.6 ± 2.12 µg/mL (≈ 67.3 µM).
With `CC(=O)NC[C@H]1CN(c2ccc(N3CCOCC3)c(F)c2)C(=O)O1` [Linezolid, reference compound] the MBC/MIC [1] was 17.6, the “Interpretation (of MBC/MIC)” value [1] was “Bacteriostatic” and the time-kill outcome (MRSA) was “remained bacteriostatic, showing no significant kill at any time point”.
In the case of `CC1(C)CCC(c2ccc(Cl)cc2)=C(CN2CCN(c3ccc(C(=O)NS(=O)(=O)c4ccc(N[C@H](CCN5CCOCC5)CSc5ccccc5)c(S(=O)(=O)C(F)(F)F)c4)cc3)CC2)C1` [Navitoclax, reference compound], the IC50 [5] is given as 1000 nM, the “apoptosis / cytotoxicity in normal cells” value (normal HDF cells) is given as “high levels of apoptosis” and the apoptosis induction (MDA-MB-231 cells) is given as “high levels of apoptosis”. The apoptosis induction (MCF-7 cells) was “high levels of apoptosis”.
